Structures can show the parent of a compound that is named as a salt. Where two headings read alike, the source gives them in different places.
Legend:
[1] = system: male CFLP mice; test: Anticonvulsive effect in mice, strychnine; assay type: in vivo; conditions: Mus musculus, po, read-out: ED50 p.o., Strychnine
Procedure: (§1) The anticonvulsive effect of the compounds of the formula (I) was measured by using the electroshock test [J. Pharmacol. Exp. Ther. 106, 319 (1952)], furthermore by using various chemical agents such as pentetrazole [J. Pharmacol. Exp. Ther. 108, 168 (1953)], strychnine [J. Pharmacol. Exp. Ther. 129, 75 (1960)], bemegride, nicotine and 4-aminopyridine. The test compounds were orally administered in 3 doses, to 10 male CFLP mice per dose.

[2] = system: male CFLP mice; test: Anticonvulsive effect in mice, electroshock test; assay type: in vivo; conditions: Mus musculus, po, read-out: ED50 p.o., ES (electroshock)
Procedure: as §1

[3] = system: CFLP mice; test: Inclined screen test in mice; assay type: in vivo; conditions: Mus musculus, ip, read-out: ED50 i.p., inclined screen test
Text: In Randall's inclined screen test [J. Pharmacol. Exp. Ther. 129, 163 (1960)] the compounds were applied in 3 i.p. doses to 10 CFLP mice per dose.

[4] = system: male CFLP mice; test: Anticonvulsive effect in mice, nicotine; assay type: in vivo; conditions: Mus musculus, po
Procedure: as §1

[5] = system: male CFLP mice; test: Anticonvulsive effect in mice, pentetrazole; assay type: in vivo; conditions: Mus musculus, po, read-out: ED50 p.o., Pentetrazole
Procedure: as §1

[6] = system: male CFLP mice; test: Anticonvulsive effect in mice, bemegride; assay type: in vivo; conditions: Mus musculus, po, read-out: ED50 p.o., Bemegride
Procedure: as §1

[7] = system: male CFLP mice; test: Anticonvulsive effect in mice, 4-aminopyridine; assay type: in vivo; conditions: Mus musculus, po, read-out: ED50 p.o., 4-AP (4-aminopyridine)
Procedure: as §1

[8] = Acute toxicity in mice; conditions: mouse, in vivo
Procedure: The cause of mortality was respiratory insufficiency developing within 1 to 2 hours after i.p. administration and within 10 to 20 hours after oral application.

[9] = system: mice; test: Rotarod test in mice; assay type: in vivo; conditions: Mus musculus, ip, read-out: ED50 i.p., rotarod test
Text: The rotarod test was used to measure muscular tone and motor co-ordination [J. Am. Pharm. Assoc. 46, 208 (1957)].

[10] = system: mice; test: Protection against methamphetamine-induced dopaminergic neurotoxicity, in mice; assay type: in vivo; conditions: METH 2×20 mg/kg i.p., Example 128 3×5 mg/kg i.p., MK-801 3×2.5 mg/kg i.p.
Procedure: High doses of methamphetamine (2×20 mg/kg i.p.) decrease the striatal level of dopamine, which can be prevented by glutamate antagonists, e.g. the NMDA-antagonist MK-801 [Science 243, 398 (1989)].

[11] = system: cats; test: Effects on spinal root reflex potentials in spinalized and immobilized cats; assay type: in vivo; conditions: for minimal effective dose: Felis catus
Procedure: The effect of compound of Example 15(16) on the spinal root potentials in cats was tested in spinalized and immobilized animals [Neuropharmacology 21, 161 (1989)].

SMILES | ED50 [1] [mg/kg] | ED50 ([2]; mice, p.o.) [mg/kg] | ED50 ([3]; mice, i.p.) [mg/kg] | ED50 [4] [mg/kg] | ED50 ([5]; mice, p.o.) [mg/kg] | ED50 ([6]; mice, p.o.) [mg/kg] | ED50 ([7]; mice, p.o.) [mg/kg] | LD50 ([8]; ip, read-out: LD50 i.p.) [mg/kg] | LD50 ([8]; po, read-out: LD50 p.o.) [mg/kg] | ED50 ([9]; mice, i.p.) [mg/kg] | further results
CC1=NN=C(c2ccc(NC(=O)CN)cc2)c2cc3c(cc2C1)OCO3 [Example 66, 1-(4-Glycylaminophenyl)-4-methyl-7,8-methylenedioxy-5H-2,3-benzodiazepine] | 105 | 42 | 52 | 105 | 135 | > 100 | 84 | 205 | 281 | 18.5 | –
CCC(=O)Nc1ccc(C2=NN(C(C)=O)C(C)Cc3cc4c(cc32)OCO4)cc1 (stereo not drawn) [Example 48] | > 100 | 10.5 | 20.5 | 25 | 30.5 | 33 | 20 | 103 | 149 | 7.2 | –
CC1=NN=C(c2ccc(NC(=O)C(C)N)cc2)c2cc3c(cc2C1)OCO3 (racemic) [Example 69] | – | 57 | – | – | > 100 | – | – | – | – | – | –
CC(=O)Nc1ccc(C2=NN(C(C)=O)C(C)Cc3cc4c(cc32)OCO4)cc1 (stereo not drawn) [Example 42, 1-(4-Acetylaminophenyl)-3-acetyl-4-methyl-7,8-methylenedioxy-3,4-dihydro-5H-2,3-benzodiazepine] | 28 | 24 | 42 | 155 | 33 | 24 | 34 | 120 | 185 | 8.1 | –
CC(=O)N(C(C)=O)c1ccc(C2=NN(C(C)=O)C(C)Cc3cc4c(cc32)OCO4)cc1 (stereo not drawn) [Example 39, 1-(4-Diacetylaminophenyl)-3-acetyl-4-methyl-7,8-methylenedioxy-3,4-dihydro-5H-2,3-benzodiazepine] | – | 53 | – | – | 170 | > 200 | 29 | 271 | > 600 | – | –
CCC(=O)Nc1ccc(C2=NN(C(=O)CC)C(C)Cc3cc4c(cc32)OCO4)cc1 (stereo not drawn) [Example 45, 1-(4-Propionylaminophenyl)-3-propionyl-4-methyl-7,8-methylenedioxy-3,4-dihydro-5H-2,3-benzodiazepine] | > 100 | 27 | 35 | 23 | 44 | 51 | 34 | 98.4 | 206 | 10 | –
CC(=O)N1N=C(c2ccc(NC=O)cc2)c2cc3c(cc2CC1C)OCO3 (stereo not drawn) [Example 46] | > 100 | 20 | – | 80 | 57 | 56 | 17 | 173 | 162 | – | –
CC(=O)N1N=C(c2ccc(NC(=O)CN(C)C)cc2)c2cc3c(cc2CC1C)OCO3 (stereo not drawn) [Example 107, 1-[4-(N,N-dimethylglycylamino)phenyl]-3-acetyl-4-methyl-7,8-methylenedioxy-3,4-dihydro-5H-2,3-benzodiazepine] | 22.8 | 23.5 | – | 34.2 | 120 | 25.4 | 36.8 | – | – | – | –
C[C@]12N[C@H](Cc3ccccc31)c1ccccc12 [MK-801, (+)-10,11-dihydro-5-methyl-5H-dibenzo[a,d]cyclohepten-5,10-imine (Z)-2-butene-dioate, reference compound] | – | – | – | – | – | – | – | – | – | – | (DOPAC + HVA)/DA, % ([10]; % of saline group): 132%; DA, % ([10]; % of saline group): 66%; (DOPAC + HVA)/DA, mean ± SE ([10]; striatal dopamine turnover): 0.33 ± 0.06; DA, μg/g tissue, mean ± SE ([10]; striatal dopamine): 10.01 ± 1.10 μg/g tissue
CC(=O)N1N=C(c2ccc(NC(=O)CN3CCCC3)cc2)c2cc3c(cc2CC1C)OCO3 (stereo not drawn) [Example 109, 1-[4-(1-Pyrrolidinoacetylamino)phenyl]-3-acetyl-4-methyl-7,8-methylenedioxy-3,4-dihydro-5H-2,3-benzodiazepine hydrogen fumarate] | – | 21 | – | – | > 100 | – | – | – | – | – | –
CCC(=O)N1N=C(c2ccc(NC(C)=O)cc2)c2cc3c(cc2CC1C)OCO3 (stereo not drawn) [Example 49] | > 100 | 25 | 36 | 45 | 53 | 43 | 28 | – | – | 9.4 | –
CN1C(=O)CN=C(c2ccccc2)c2cc(Cl)ccc21 [Diazepam, 7-chloro-1,3-dihydro-1-methyl-5-phenyl-2H-1,4-benzodiazepin-2-one, reference compound] | 15 | – | – | 1.85 | – | – | – | – | – | – | ED50 [2]: 18 mg/kg; Effect on both dorsal root responses [11]: markedly potentiated; minimal effective dose ([11]; read-out: Minimal effective dose, inhibition of polysynaptic reflexes): < 0.1 mg/kg; minimal effective dose ([11]; read-out: Minimal effective doses, potentiation of dorsal root responses): ~0.1 mg/kg; Maximal inhibition of polysynaptic reflexes ([11]; partial inhibition): ≤ 50%; Effect on monosynaptic reflexes ([11]; up to 3.2 mg/kg): did not affect; ED50 [5]: 0.86 mg/kg; ED50 [6]: 0.58 mg/kg
CC(=O)N1N=C(c2ccc(NC(=O)C(F)(F)F)cc2)c2cc3c(cc2CC1C)OCO3 (stereo not drawn) [Example 62] | > 100 | 12.5 | 25.5 | 31 | 56 | 36 | 29 | 136 | 160 | 7.8 | –
NCC(CC(=O)O)c1ccc(Cl)cc1 (stereo not drawn) [Baclofen, β-(aminomethyl)-4-chlorobenzeneprioionic acid, reference compound] | – | – | – | – | – | – | – | – | – | – | ED50 [3]: 26 mg/kg; ED50 [9]: 12.5 mg/kg
CC(=O)N1N=C(c2ccc(NC(=O)CN)cc2)c2cc3c(cc2CC1C)OCO3 (stereo not drawn) [Example 73] | > 100 | 16 | 27 | 53 | 62 | 49 | 28 | 143 | 168 | 6.3 | –
CCN(CC)CC(=O)Nc1ccc(C2=NN(C(C)=O)C(C)Cc3cc4c(cc32)OCO4)cc1 (stereo not drawn) [Example 108, 1-[4-(N,N-diethylglycylamino)phenyl]-3-acetyl-4-methyl-7,8-methylenedioxy-3,4-dihydro-5H-2,3-benzodiazepine] | – | 27 | – | – | > 100 | – | – | – | – | – | –
CNC(=O)N1N=C(c2ccc(NC(=O)CN)cc2)c2cc3c(cc2CC1C)OCO3 (stereo not drawn) [Example 115, 1-(4-Glycylaminophenyl)-3-methylcarbamoyl-4-methyl-7,8-methylenedioxy-3,4-dihydro-5H-2,3-benzodiazepine] | – | 17.1 | 16.1 | – | 23.9 | – | – | 90.7 | 200 to 250 | 7.3 | –
COCC(=O)Nc1ccc(C2=NN(C(C)=O)C(C)Cc3cc4c(cc32)OCO4)cc1 (stereo not drawn) [Example 52] | > 100 | 17.5 | 21 | 13.5 | 36 | 29 | 24 | 117 | 188 | 4.8 | –
CCC(=O)N1N=C(c2ccc(N)cc2)c2cc3c(cc2CC1C)OCO3 (stereo not drawn) [Example 18] | > 100 | – | – | 16 | – | – | – | – | – | – | ED50 [2]: 17.5 mg/kg; ED50 [3]: 31 mg/kg; ED50 [5]: 29 mg/kg; ED50 [6]: 20 mg/kg; ED50 [7]: 16 mg/kg; ED50 [9]: 7.5 mg/kg
CCC(=O)Nc1ccc(C2=NN(C=O)C(C)Cc3cc4c(cc32)OCO4)cc1 (stereo not drawn) [Example 60] | – | 24 | – | – | 62 | – | – | – | – | – | –
O=C1NC(=O)C(c2ccccc2)(c2ccccc2)N1 [Phenytoin, 5,5-diphenyl-2,4-imidazolidinedione, reference compound] | 160 | 10 | – | 12 | > 400 | > 200 | – | – | – | – | –

From patent US5639751A, “N-acyl-2,3-benzodiazepine derivatives for treating acute and chronic neurodegenerative disorders” (priority 1990, dated 1997)
